{"source": "patent US7456225B1", "about": "“Liver protection compounds of the cyclohexenone type from Antrodia camphorata” (Golden Biotechnology Corporation, priority 2007, dated 2008)", "key": {"[1]": {"system": "CCl4 induced liver injury in rats", "experiment": "Histological evaluation of liver injury (H&E, Jonker et al. 0-4 scale)", "type": "in vivo, Sprague-Dawley (SD) rats", "details": "for Liver injury score: 0-4 scale, CCl4-treated rats, 8 weeks; for Liver injury +, counts of pathological rats: level 1 = +, slight; for Liver injury ++, counts of pathological rats: level 2 = ++, mild; for Liver injury +++, counts of pathological rats: level 3 = +++, moderate; for Liver injury ++++, counts of pathological rats: level 4 = ++++, remarkable", "experimental": "(§1) The animal model was performed with five-week-old Sprague-Dawley (SD) rats purchased from BioLasco Taiwan Co., Ltd. Healthy rats weighing 220-270 g were chosen for experiment after observing for 2 weeks in the laboratory animal room. The rats were randomly divided into 6 groups (12 rats/group): normal (gp. A); control groups including model control (gp. B) and positive control (gp. C, animals receiving silymarin); treatment groups including animals receiving 300 mg/kg of cyclohexenone (gp. D), 1000 mg/kg of cyclohexenone (gp. E), and 3000 mg/kg of cyclohexenone (gp. F), as indicated in Table 1. Only normal group was not poisoned with CCl4. The body weights were recorded to calculate the dosage. […] It helps to remove toxins from liver cells by either neutralizing the toxicity of toxic compounds or competing with the binding sites in liver. It is a potent antioxidant, protects the liver from free radicals. It has been widely studied for treating various types of liver injury in animals and clinical trials. The beneficial effects on liver protection have made silymarin a good medicine for liver diseases and a drug in positive control group for the animal model of liver injury.\nRats in normal group (group A) were fed with corn oil (Sigma chemical co.) by means of stomach tubes. Carbon tetrachloride (Shimakyu, Osaka, Japan) was administered to groups B to F via stomach tubes twice weekly (every Tuesday and Thursday afternoon) for 8 weeks, at a dose of 2 ml/kg of body weight, diluted with corn oil. Silymarin was prepared with saline in an amount of 200 mg/kg of body weight and was fed to rats of group C via a stomach tube. Cyclohexenone prepared from example 1 was mixed with saline, and fed in the amounts of 300 mg/kg, 1000 mg/kg and 3000 mg/kg of body weight to rats of group D to F via stomach tubes. The total feeding volume was estimated in the ratio of 10 ml/kg of body weight to groups C to F five days a week (every morning) for 8 weeks. The body weights of rats and the amounts of food intake in rats for each group were shown in FIG. 1 and FIG. 2, respectively.\nThe pathological changes of the liver surface were examined with naked eyes when the liver was taken out from rats, and then tissue sections were made. Half of each liver lobe was stored at −80° C. for antioxidant enzyme assay to follow up. The rest of liver tissues were fixed in 10% formalin for one week, embedded in paraffin cut into 2 μm sections, and stained with Hematoxyline-eosin (H&E) to visualize the lipid deposition, inflammation, cell necrosis and fibrosis, or stained with Masson's trichromic solution to visualize extracellular matrix and collagen fibers for liver fibrosis development. The pathological changes of liver injury were evaluated under light microscope (Opticphot-2, Nikon, Tokyo, Japan) after stained with the abovementioned solution.\nAssessment of pathologic score in the chronic liver damage, the extent of inflammation, vacuolar degeneration, liver cell necrosis and bile duct proliferation were graded semi-quantitatively on a “0” to “4” scale (level 0=−, none, level 1=+, slight, level 2=++, mild, level 3=+++, moderate, and level 4=++++, remarkable, according to Jonker et al. (Jonker, A. M., Dijkhuis, F. W., Boes, A., Hardonk, M. J. and Grond J. 1992. Immunohistochemical study of extracellular matrix in acute galactosamine hepatitis in rats. Hepatology. 15(3):423-31)."}, "[2]": {"system": "CCl4-induced liver injury in rats", "experiment": "Pathological changes of the liver surface observed with naked eyes", "type": "in vivo, Sprague-Dawley (SD) rats", "details": "CCl4-treated rats, 8 weeks", "experimental": "as §1, with “The beneficial effects on liver protection have made silymarin a good medicine for liver diseases and a drug in positive control group for the animal model of liver injury.” left out\nThe pathological changes of the liver surface were examined with naked eyes when the liver was taken out from rats, and then tissue sections were made. […] The pathological changes of liver injury were evaluated under light microscope (Opticphot-2, Nikon, Tokyo, Japan) after stained with the abovementioned solution. […]"}}, "note": "Marks after values point to notes of the source that are not given here."}
{"compound": "COC1=C(OC)C(O)C(C/C=C(\\C)CC/C=C(\\C)CCC=C(C)C)C(C)C1=O", "note": "(stereo not shown) [Cyclohexenone from Antrodia camphorata, 4-hydroxy-2,3-dimethoxy-6-methyl-5(3,7,11-trimethyl-dodeca-2,6,10-trienyl)-cyclohex-2-enone]", "values": [{"measurement": "Liver injury score", "setting": "[1]; cyclohexenone 300 mg/kg", "result": "1.8*^a"}, {"measurement": "Liver injury score", "setting": "[1]; cyclohexenone 300 mg/kg, listed as cyclohexenone from Antrodia camphorata", "result": 1.8}, {"measurement": "Liver injury score", "setting": "[1]; cyclohexenone 1000 mg/kg", "result": "2.0*^a"}, {"measurement": "Liver injury score", "setting": "[1]; cyclohexenone 1000 mg/kg, listed as cyclohexenone from Antrodia camphorata", "result": 2.0}, {"measurement": "Liver injury score", "setting": "[1]; cyclohexenone 3000 mg/kg", "result": "2.3*^a"}, {"measurement": "effects in liver injury and liver fibrosis compared with silymarin", "setting": "[1]; CCl4 treated rats fed with different amount of cyclohexenone (300, 1000, 3000 mg/kg)", "result": "better effects than silymarin"}, {"measurement": "Liver injury +, counts of pathological rats", "setting": "[1]; cyclohexenone 300 mg/kg", "result": 5}, {"measurement": "Liver injury +, counts of pathological rats", "setting": "[1]; cyclohexenone 1000 mg/kg", "result": 3}, {"measurement": "Liver injury +, counts of pathological rats", "setting": "[1]; cyclohexenone 3000 mg/kg", "result": 2}, {"measurement": "Liver injury ++, counts of pathological rats", "setting": "[1]; cyclohexenone 300 mg/kg", "result": 6}, {"measurement": "Liver injury ++, counts of pathological rats", "setting": "[1]; cyclohexenone 1000 mg/kg", "result": 6}, {"measurement": "Liver injury ++, counts of pathological rats", "setting": "[1]; cyclohexenone 3000 mg/kg", "result": 6}, {"measurement": "Liver injury +++, counts of pathological rats", "setting": "[1]; cyclohexenone 1000 mg/kg", "result": 1}, {"measurement": "Liver injury +++, counts of pathological rats", "setting": "[1]; cyclohexenone 3000 mg/kg", "result": 1}, {"measurement": "Liver injury ++++, counts of pathological rats", "setting": "[1]; cyclohexenone 300 mg/kg", "result": 1}, {"measurement": "Liver injury ++++, counts of pathological rats", "setting": "[1]; cyclohexenone 1000 mg/kg", "result": 1}, {"measurement": "Liver injury ++++, counts of pathological rats", "setting": "[1]; cyclohexenone 3000 mg/kg", "result": 2}, {"measurement": "swelling and pathological conditions of liver surface (naked eyes)", "setting": "[2]; cyclohexenone 3000 mg/kg", "result": "slightest condition in swelling and pathological conditions"}, {"measurement": "extents of liver pathological changes (liver surface, naked eyes)", "setting": "[2]; various amounts of cyclohexenone (300, 1000, 3000 mg/kg), vs model group", "result": "significantly weaker than that of model group"}]}
